Several values for one entry are separate records, joined by “and”; a condition that tells them apart may be missing. Identical values can stand only once.
How the values were obtained:
[1] = Ex vivo biodistribution in naïve CBA/Carl mice; settings: 1 h p.i., individual animals
Description: (§1) Dynamic PET/CT images were acquired following an intravenous bolus administration of [^18F]-olaparib. Biodistribution studies, where selected tissues were harvested, were performed 1 h post injection. Some animals were also administered an excess of cold, unlabelled olaparib for evaluating the specificity of tumour uptake. EF5, a hypoxia-selective marker, was injected 2 h before culling of the animal. Digital autoradiography was performed on tumour sections. Image analysis was performed using PMOD.
(§2) Dynamic PET/CT images were acquired using a VECTor ^4CT integrated PET/CT system. Mice were anaesthetised by 4% isoflurane gas (0.5 L/min O2) and placed on a custom-built imaging cradle in a prone position. Animals mice were intravenously injected with [^18F]-olaparib or (3-5 MBq, 8-11 GBq/μmol, through a tail vein catheter, and dynamic imaging was performed over 45-60 min after radiolabelled compound administration. PET acquisition (150 s per frame, using list mode acquisition) using an ultra-high resolution rat/mouse 1.8 mm collimator, followed by a cone-beam CT scan (55 kV, 0.19 mA) for anatomical reference and attenuation correction. Anaesthesia was maintained at 2.5% isoflurane throughout the duration of the image acquisition. PET images were reconstructed using U-SPECT-Rec3.22 software (MILabs, Utrecht, The Netherlands), applying a pixel-based algorithm with 8 subsets, 6 iterations and 0.8 mm voxel size for ^18F (energy window settings 477.9-584.1 keV).
(§3) After PET/CT image acquisition, animals were euthanized by cervical dislocation and selected organs, tissues and blood were removed. The amount of radioactivity in each organ was measured using a 2480 WIZARD^2 gamma counter (PerkinElmer). Counts per minute were converted into MBq using a calibration curve generated from known standards. Values were decay-corrected to the time of injection, and the percentage of the injected dose per gram (% ID/g) of each tissue was calculated.

CaNT allograft = assay: Ex vivo biodistribution in CaNT allograft bearing CBA/Carl mice; settings: for Ex vivo biodistribution Blood / Ex vivo biodistribution Bone / Ex vivo biodistribution Brain / Ex vivo biodistribution Caecum / Ex vivo biodistribution Fat / Ex vivo biodistribution Gallbladder / Ex vivo biodistribution Heart / Ex vivo biodistribution Kidney / Ex vivo biodistribution Large intestine / Ex vivo biodistribution Liver / Ex vivo biodistribution Lung / Ex vivo biodistribution Muscle / Ex vivo biodistribution Pancreas / Ex vivo biodistribution Skin / Ex vivo biodistribution Spleen / Ex vivo biodistribution Stomach / Ex vivo biodistribution Tumour: CaNT allograft mice, 1 h p.i.; for tumour uptake (group mean): CaNT tumours
Description: All animal procedures were performed in accordance with the UK Animals (Scientific Procedures) Act 1986 and with local ethical committee approval. Animals were housed in IVC cages in sex-matched groups up to 5 per cage, in an artificial day-night cycle facility, with ad libitum access to food and water. Tumour xenografts or allografts were generated by subcutaneous injection of PANC-1 or Capan-1 cell suspensions in the hind flank of balb/c nu/nu animals. CaNT xenografts were generated by harvesting CaNT tumours from donor animals, and injecting a tumour homogenate subcutaneously in the flank of wild type CBA/Carl mice. Tumours were irradiated (10 Gy, 2 Gy/min) using a 300 kV X-ray device.
as §1
The murine adenocarcinoma NT (CaNT) was implanted subcutaneously onto the right thigh of 6-7 week-old female CBA/Carl mice. Fifty μL of a crude cell suspension, prepared by mechanical dissociation of an excised tumor from a donor animal, was injected. Tumors were selected for imaging when the geometric mean diameter reached 6-8 mm (volumes calculated as above), approximately 3 weeks after implantation (Kersemans, V., et al. Hypoxia imaging using PET and SPECT: the effects of anesthetic and carrier gas on [Cu]-ATSM, [Tc]-HL91 and [F]-FMISO tumor hypoxia accumulation. PloS one 6, e25911, 2011).
Two hours prior to PET/CT imaging, animals were exposed to X-irradiation of the tumour (10 Gy or sham) (see schedule in FIG. 13). Radiation was delivered using a Gulmay 320 kV X-irradiator; 2.0 Gy/min. Anaesthesia was maintained at 2.5% isoflurane throughout the duration of the irradiation, and animals were allowed to recover. To study the relationship of PARP1 expression, ^18F-olaparib uptake and hypoxia, animals were administered 0.6 μg in 200 μL (0.9% saline) intraperitoneally, one hour prior to PET/CT imaging. Naïve CBA/Carl mice, not bearing tumours, were not irradiated, nor was EF5 administered.
as §2, §3

[2] = Dynamic PET blood clearance in naïve CBA/Carl mice; format: in vivo; settings: i.v. 3 MBq
[3] = + IR (10 Gy), individual animals
[4] = + block (excess cold olaparib), individual animal
[5] = tracer alone, individual animals

In the case of `O=C(c1cc(Cc2n[nH]c(=O)c3ccccc23)ccc1[18F])N1CCN(C(=O)C2CC2)CC1` [[^18F]olaparib], the “Ex vivo biodistribution Blood” value [1] is reported as 0.11 % ID/g (2×) and 0.14 % ID/g, the “Ex vivo biodistribution Fat” value [1] is reported as 0.05 % ID/g and 0.03 % ID/g and 0.26 % ID/g and the “Ex vivo biodistribution Heart” value [1] is reported as 0.19 % ID/g and 0.17 % ID/g and 0.34 % ID/g. The “Ex vivo biodistribution Kidney” value [1] was 0.59 % ID/g and 0.60 % ID/g and 1.01 % ID/g, the “Ex vivo biodistribution Large intestine” value [1] was 0.92 % ID/g and 1.64 % ID/g and 2.99 % ID/g and the “Ex vivo biodistribution Liver” value [1] was 2.55 % ID/g and 4.02 % ID/g and 5.27 % ID/g. For the same compound, the “Ex vivo biodistribution Lung” value [1] was 0.29 % ID/g and 0.19 % ID/g and 0.34 % ID/g, the “Ex vivo biodistribution Muscle” value [1] was 0.20 % ID/g and 0.14 % ID/g and 0.34 % ID/g and the “Ex vivo biodistribution Pancreas” value [1] was 0.91 % ID/g and 0.70 % ID/g and 1.30 % ID/g. For the same compound, the “Ex vivo biodistribution Skin” value [1] was 0.16 % ID/g and 0.10 % ID/g and 0.27 % ID/g, the “Ex vivo biodistribution Small intestine” value [1] was 7.75 % ID/g and 10.33 % ID/g and 17.40 % ID/g and the “Ex vivo biodistribution Spleen” value [1] was 2.09 % ID/g and 1.91 % ID/g and 3.68 % ID/g. For the same compound, the “Ex vivo biodistribution Stomach” value [1] was 0.46 % ID/g and 0.26 % ID/g and 0.58 % ID/g, the “Ex vivo biodistribution Blood” value (CaNT allograft; [3]) was 9.79 % ID/g and 3.12 % ID/g and the “Ex vivo biodistribution Bone” value (CaNT allograft; [3]) was 15.7 % ID/g and 11.5 % ID/g. The “Ex vivo biodistribution Brain” value (CaNT allograft; [3]) was 0.20 % ID/g and 0.25 % ID/g, the “Ex vivo biodistribution Caecum” value (CaNT allograft; [3]) was 42.9 % ID/g and 44.6 % ID/g and the “Ex vivo biodistribution Fat” value (CaNT allograft; [3]) was 2.52 % ID/g and 2.34 % ID/g. The “Ex vivo biodistribution Gallbladder” value (CaNT allograft; [3]) was 155 % ID/g and 57.3 % ID/g, the “Ex vivo biodistribution Heart” value (CaNT allograft; [3]) was 8.74 % ID/g and 7.03 % ID/g and the “Ex vivo biodistribution Kidney” value (CaNT allograft; [3]) was 24.5 % ID/g and 19.0 % ID/g. For the same compound, the “Ex vivo biodistribution Large intestine” value (CaNT allograft; [3]) was 60.1 % ID/g and 47.0 % ID/g, the “Ex vivo biodistribution Liver” value (CaNT allograft; [3]) was 93.2 % ID/g and 100 % ID/g and the “Ex vivo biodistribution Lung” value (CaNT allograft; [3]) was 10.9 % ID/g and 9.61 % ID/g. The “Ex vivo biodistribution Muscle” value (CaNT allograft; [3]) was 5.45 % ID/g and 5.31 % ID/g, the “Ex vivo biodistribution Pancreas” value (CaNT allograft; [3]) was 29.5 % ID/g and 23.6 % ID/g and the “Ex vivo biodistribution Skin” value (CaNT allograft; [3]) was 5.02 % ID/g and 5.12 % ID/g. The “Ex vivo biodistribution Spleen” value (CaNT allograft; [3]) was 69.0 % ID/g and 58.3 % ID/g, the “Ex vivo biodistribution Stomach” value (CaNT allograft; [3]) was 9.40 % ID/g and 4.20 % ID/g and the “Ex vivo biodistribution Tumour” value (CaNT allograft; [3]) was 1.43 % ID/g and 1.92 % ID/g. The “Ex vivo biodistribution Blood” value (CaNT allograft; [4]) was 4.00 % ID/g, the “Ex vivo biodistribution Bone” value (CaNT allograft; [4]) was 5.18 % ID/g and the “Ex vivo biodistribution Brain” value (CaNT allograft; [4]) was 0.22 % ID/g. The “Ex vivo biodistribution Caecum” value (CaNT allograft; [4]) was 101 % ID/g, the “Ex vivo biodistribution Fat” value (CaNT allograft; [4]) was 1.57 % ID/g and the “Ex vivo biodistribution Gallbladder” value (CaNT allograft; [4]) was 194 % ID/g. The “Ex vivo biodistribution Heart” value (CaNT allograft; [4]) was 2.51 % ID/g, the “Ex vivo biodistribution Kidney” value (CaNT allograft; [4]) was 8.45 % ID/g and the “Ex vivo biodistribution Large intestine” value (CaNT allograft; [4]) was 61.2 % ID/g. For the same compound, the “Ex vivo biodistribution Liver” value (CaNT allograft; [4]) was 74.3 % ID/g, the “Ex vivo biodistribution Lung” value (CaNT allograft; [4]) was 2.29 % ID/g and the “Ex vivo biodistribution Muscle” value (CaNT allograft; [4]) was 2.65 % ID/g. For the same compound, the “Ex vivo biodistribution Pancreas” value (CaNT allograft; [4]) was 3.41 % ID/g, the “Ex vivo biodistribution Skin” value (CaNT allograft; [4]) was 1.16 % ID/g and the “Ex vivo biodistribution Spleen” value (CaNT allograft; [4]) was 2.41 % ID/g. For the same compound, the “Ex vivo biodistribution Stomach” value (CaNT allograft; [4]) was 4.09 % ID/g, the “Ex vivo biodistribution Tumour” value (CaNT allograft; [4]) was 0.98 % ID/g and the “Ex vivo biodistribution Blood” value (CaNT allograft; [5]) was 1.78 % ID/g and 8.00 % ID/g. For the same compound, the “Ex vivo biodistribution Bone” value (CaNT allograft; [5]) was 11.7 % ID/g and 10.2 % ID/g, the “Ex vivo biodistribution Brain” value (CaNT allograft; [5]) was 0.29 % ID/g and 0.23 % ID/g and the “Ex vivo biodistribution Caecum” value (CaNT allograft; [5]) was 32.5 % ID/g and 56.2 % ID/g. For the same compound, the “Ex vivo biodistribution Fat” value (CaNT allograft; [5]) was 7.19 % ID/g and 1.12 % ID/g, the “Ex vivo biodistribution Gallbladder” value (CaNT allograft; [5]) was 953 % ID/g and 126 % ID/g and the “Ex vivo biodistribution Heart” value (CaNT allograft; [5]) was 7.34 % ID/g and 0.00 % ID/g. The “Ex vivo biodistribution Kidney” value (CaNT allograft; [5]) was 23.9 % ID/g and 21.0 % ID/g, the “Ex vivo biodistribution Large intestine” value (CaNT allograft; [5]) was 24.0 % ID/g and 47.8 % ID/g and the “Ex vivo biodistribution Liver” value (CaNT allograft; [5]) was 84.6 % ID/g and 110 % ID/g. For the same compound, the “Ex vivo biodistribution Lung” value (CaNT allograft; [5]) was 12.5 % ID/g and 9.73 % ID/g, the “Ex vivo biodistribution Muscle” value (CaNT allograft; [5]) was 5.84 % ID/g and 4.63 % ID/g and the “Ex vivo biodistribution Pancreas” value (CaNT allograft; [5]) was 15.1 % ID/g and 20.8 % ID/g. The “Ex vivo biodistribution Skin” value (CaNT allograft; [5]) was 3.82 % ID/g and 4.65 % ID/g, the “Ex vivo biodistribution Spleen” value (CaNT allograft; [5]) was 43.3 % ID/g and 47.0 % ID/g and the “Ex vivo biodistribution Stomach” value (CaNT allograft; [5]) was 6.17 % ID/g and 12.8 % ID/g. The “Ex vivo biodistribution Tumour” value (CaNT allograft; [5]) was 1.48 % ID/g and 2.83 % ID/g, the “tumour uptake (group mean)” value (CaNT allograft; excess cold olaparib) was 0.80±0.19 % ID/g and the “tumour uptake (group mean)” value (CaNT allograft; tracer alone) was 1.71±0.59 % ID/g. The clearance pattern ([2]; dynamic PET) was “hepatobilliary”, the weighted blood half-life [2] was 19.3 min and the “blood clearance fast half-life” value ([2]; biphasic fit, fast phase (44%)) was 2.8 min. For the same compound, the “blood clearance slow half-life” value ([2]; biphasic fit, slow phase (56%)) was 32.3 min.
